Reference: patent US12343350B2, “Istaroxime-containing intravenous formulation for the treatment of acute heart failure (AHF)” (Windtree Therapeutics, Inc., priority 2019, dated 2025)

System: mouse (Albino Swiss CD-1)
Assay: Acute toxicity (LD50) in mouse
Type: in vivo
Conditions: single administration
Procedure: Acute toxicity has been determined in the mouse (Albino Swiss CD-1, body weight 30 g). Mice were orally treated, or intravenously injected, with single administration of increasing doses of the test substance to identify the dose causing 50% mortality. Mortality occurred within 30 min after the administration and survival after 24 h. The acute toxicity (LD50) was then assessed.
The acute toxicity of the tested compound PST 3093 was determined in the mouse (Albino Swiss CD-1, body weight 30 g). Compound PST 3093 was orally administered or intravenously injected at increasing doses to identify the dose causing 50% mortality. Mortality occurred within 30 min after the administration and survival after 24 h.

Question: What does the source list for `C[C@]12CCC(=NOCC(=O)O)CC1[C@H](O)CC1C2CC[C@]2(C)C(=O)CCC12` (stereo partly drawn) [PST 3093, (E,Z)-[(6-beta-hydroxy-17-oxoandrostan-3-ylidene)amino]oxyacetic acid]?
Answer: LD50 (i.v.): >250 mg/kg; LD50 (os (oral)): >200 mg/kg
